# US10941121B2 (AZIENDA OSPEDALIERA UNIVERSITARIA SENESE, priority 2015, dated 2021)
# Read-outs that look alike come from different tables or passages of the source.
# Legend:
# Water Solubility Assay = assay type: physicochemical; conditions: thermodynamic from solid
# HIV (PBMC) = assay: HIV infectious cell culture system in PBMC, HIV-1 RNA in supernatant; conditions: Human immunodeficiency virus 1, PBMC, 72 h, read-out: EC50 HIV (PBMC) 72 h
# [1] = Cytotoxicity in PBMC, CellTiter 96 MTS viability assay; assay type: cell-based; conditions: human, human primary PBMCs
# [2] = tested on: human liver microsome (HLM); assay: Microsomal Stability Assay; conditions: human liver microsomes, 37 °C, 60 min, compound 50 μM; percentage of not metabolized compound
# [3] = tested on: Hepatitis C Virus (HCV) replicon system; assay: HCV replicon system, luciferase method in LucUbiNeo-ET cells
# [4] = Cytotoxicity in the JEV cell culture system; conditions: hamster
# NS3 (HCV) = NS3 (HCV) (Hepacivirus hominis (Hepatitis C virus), UniProt P26663); assay: Selectivity of 20a: NS3 (HCV); assay type: biochemical
# [5] = tested on: HIV-1 wild-type reference strain NL4-3; assay: HIV-1 phenotypic assay, MT-2 cells then TZM-bl cells, luciferase; assay type: cell-based; conditions: Human immunodeficiency virus 1, NL43
# DDX3 Helicase = DDX3 Helicase (Homo sapiens, UniProt O00571); conditions: read-out: ID50 (μM) against DDX3 Helicase; n.a. = compound not active
# [6] = tested on: HIV-1 strains carrying resistance mutations; assay: microbe, parasite or virus in culture; assay type: cell-based; conditions: for IC50: Human immunodeficiency virus 1, TZM-bl
# [7] = Cytotoxicity in Huh7 cells, nuclei counts; conditions: human
# NS3 (DENV) = NS3 (DENV) (Orthoflavivirus denguei (Dengue virus), UniProt P29990); assay: Selectivity of 20a: NS3 (DENV); assay type: biochemical
# [8] = Cytotoxicity, MTT method in LUNET cells; assay type: cell-based; conditions: human; MMT method in LUNET cells; read-out: CC50 (μM) non-infected cells
# Description: Toxicity (CC50) was analysed in the Lunet/HuH7 cells by the addition of 10 μL of MTT (3-(4,5-dimethylthiazol-2-yl)-2,5-diphenyltetrazolium bromide) per well. After 4 h of incubation at 37° C. in a humidified atmosphere with 5% CO2, the amount of formazan produced was quantified spectrophotometrically at 550/620 nm (C. Pannecouque et al, Nature protocol 2008; 3 (3): 427-434). […] These assays were done in duplicate.
# DDX1 = target: T1, DDX1 (Homo sapiens, UniProt Q92499); assay: Selectivity of 20a: DDX1; assay type: biochemical; conditions: >200 = less than 20% of inhibition at 200 μM, the highest concentration tested
# T1 sequence (Q92499 1-740): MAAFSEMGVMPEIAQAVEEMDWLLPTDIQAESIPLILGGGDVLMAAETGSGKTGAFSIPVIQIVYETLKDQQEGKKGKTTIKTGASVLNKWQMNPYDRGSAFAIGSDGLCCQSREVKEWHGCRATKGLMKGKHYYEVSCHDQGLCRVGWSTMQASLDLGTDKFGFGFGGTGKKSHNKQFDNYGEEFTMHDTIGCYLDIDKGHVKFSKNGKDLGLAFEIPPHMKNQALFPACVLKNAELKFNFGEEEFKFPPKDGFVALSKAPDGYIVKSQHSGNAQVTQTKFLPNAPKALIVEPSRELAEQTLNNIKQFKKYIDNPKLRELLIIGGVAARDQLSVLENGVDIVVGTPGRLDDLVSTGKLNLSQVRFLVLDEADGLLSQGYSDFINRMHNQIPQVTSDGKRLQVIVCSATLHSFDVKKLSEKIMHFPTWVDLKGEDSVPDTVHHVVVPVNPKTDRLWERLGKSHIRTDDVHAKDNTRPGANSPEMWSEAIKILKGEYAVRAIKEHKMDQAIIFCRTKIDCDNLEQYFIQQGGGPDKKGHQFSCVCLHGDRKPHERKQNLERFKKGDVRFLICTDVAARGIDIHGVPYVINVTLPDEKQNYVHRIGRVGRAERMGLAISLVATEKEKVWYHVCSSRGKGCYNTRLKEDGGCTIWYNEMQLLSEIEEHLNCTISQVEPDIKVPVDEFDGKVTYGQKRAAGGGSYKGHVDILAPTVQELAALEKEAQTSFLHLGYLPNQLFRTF
# ATPase DDX3 = target: T2, ATPase DDX3 (Homo sapiens, UniProt O00571); assay: Selectivity of 20a: ATPase DDX3; assay type: biochemical; conditions: >200 = less than 20% of inhibition at 200 μM, the highest concentration tested
# T2 construct: made in house; host or cells: E. coli
# T2 sequence (O00571 whole entry): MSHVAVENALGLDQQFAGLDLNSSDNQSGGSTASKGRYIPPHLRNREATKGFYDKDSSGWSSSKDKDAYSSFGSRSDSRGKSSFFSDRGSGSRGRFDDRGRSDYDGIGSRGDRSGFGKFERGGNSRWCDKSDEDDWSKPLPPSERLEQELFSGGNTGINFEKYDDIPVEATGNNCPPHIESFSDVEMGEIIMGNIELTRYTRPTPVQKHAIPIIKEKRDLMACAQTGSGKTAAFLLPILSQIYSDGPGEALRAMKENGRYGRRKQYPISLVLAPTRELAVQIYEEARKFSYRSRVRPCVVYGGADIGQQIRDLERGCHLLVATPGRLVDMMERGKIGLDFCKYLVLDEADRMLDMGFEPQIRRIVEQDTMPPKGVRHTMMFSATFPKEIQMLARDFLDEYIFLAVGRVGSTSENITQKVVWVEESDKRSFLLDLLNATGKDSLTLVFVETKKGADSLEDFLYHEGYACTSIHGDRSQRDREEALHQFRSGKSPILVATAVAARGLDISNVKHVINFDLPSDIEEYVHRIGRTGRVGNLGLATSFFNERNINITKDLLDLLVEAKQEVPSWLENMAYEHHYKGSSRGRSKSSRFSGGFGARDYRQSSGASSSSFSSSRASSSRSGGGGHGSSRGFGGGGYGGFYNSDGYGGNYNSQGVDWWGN
# Chain of NS3 (DENV) (P29990 1476-2093): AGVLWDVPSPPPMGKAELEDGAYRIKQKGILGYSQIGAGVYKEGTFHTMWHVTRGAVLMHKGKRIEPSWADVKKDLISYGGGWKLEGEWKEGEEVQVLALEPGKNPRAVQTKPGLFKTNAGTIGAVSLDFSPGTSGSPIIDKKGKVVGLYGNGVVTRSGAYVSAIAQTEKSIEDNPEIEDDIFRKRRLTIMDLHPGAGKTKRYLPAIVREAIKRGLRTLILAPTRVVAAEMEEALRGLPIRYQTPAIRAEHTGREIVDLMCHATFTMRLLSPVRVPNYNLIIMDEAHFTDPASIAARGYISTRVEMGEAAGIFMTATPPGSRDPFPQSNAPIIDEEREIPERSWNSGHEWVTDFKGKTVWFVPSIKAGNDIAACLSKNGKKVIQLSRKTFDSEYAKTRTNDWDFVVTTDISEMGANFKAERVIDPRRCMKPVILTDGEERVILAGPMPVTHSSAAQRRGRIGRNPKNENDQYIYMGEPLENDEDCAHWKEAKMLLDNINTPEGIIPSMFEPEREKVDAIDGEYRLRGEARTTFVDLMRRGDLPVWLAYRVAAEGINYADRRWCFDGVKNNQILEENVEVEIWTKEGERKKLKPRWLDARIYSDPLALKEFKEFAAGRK
# Chain of NS3 (HCV) (P26663 1027-1657): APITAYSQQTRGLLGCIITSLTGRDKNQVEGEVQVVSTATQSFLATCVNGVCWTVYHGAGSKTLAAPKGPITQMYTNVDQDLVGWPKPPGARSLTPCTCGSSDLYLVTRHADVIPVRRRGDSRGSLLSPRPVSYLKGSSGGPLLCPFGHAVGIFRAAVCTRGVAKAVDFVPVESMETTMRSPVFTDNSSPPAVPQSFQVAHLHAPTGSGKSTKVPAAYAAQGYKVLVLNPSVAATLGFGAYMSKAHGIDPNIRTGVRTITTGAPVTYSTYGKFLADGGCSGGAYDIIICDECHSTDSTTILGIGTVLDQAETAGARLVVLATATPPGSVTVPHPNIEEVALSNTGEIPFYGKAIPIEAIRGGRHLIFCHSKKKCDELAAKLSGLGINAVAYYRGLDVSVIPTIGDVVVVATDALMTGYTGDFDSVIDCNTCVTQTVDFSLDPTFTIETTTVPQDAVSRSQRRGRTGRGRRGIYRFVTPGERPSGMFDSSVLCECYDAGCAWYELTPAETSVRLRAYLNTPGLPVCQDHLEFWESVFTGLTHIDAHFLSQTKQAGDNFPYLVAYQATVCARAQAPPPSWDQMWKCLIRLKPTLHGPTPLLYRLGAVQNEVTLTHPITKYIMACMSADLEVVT
# Chain of DDX3 Helicase (O00571 whole entry): as the sequence (O00571 whole entry) above
smiles,measurement,setting,value
"CCCCc1cn(-c2ccc(NC(=O)Nc3ccccc3C)cc2)nn1 [Compound 20a, 1-(4-(4-butyl-1H-1,2,3-triazol-1-yl)phenyl)-3-o-tolylurea]",solubility,"Water Solubility Assay; experimental aqueous solubility, read-out: LogS (converted)",0.0891 µM
same,solubility,"Water Solubility Assay; room temperature, 24-36 h, read-out: Aq. Solub.",0.135 µg/mL
same,EC50,HIV (PBMC),30 µM
same,CC50 at 24 h,[1]; 24 h,> 1000 µM
same,CC50 at 48 h,[1]; 48 h,> 1000 µM
same,CC50 at 72 h,[1]; 72 h,> 1000 µM
same,Metabolic stability (Sability %),[2],99%
same,"activity against HCV, in words",[3],best activity
same,EC50,"[3]; Hepatitis C virus, 48 h, read-out: EC50 (μM) HCV replicon system",0.97 µM
same,CC50,[4],> 50 µM
same,IC50,NS3 (HCV),16.8 µM
same,EC50,"[5]; first cycle in MT-2 cells, additional round in TZM-bl cells",1.1 µM
same,IC50,"[5]; strain 114, NL4-3 wild type, read-out: IC50 [95% CI] (μM), HIV-1 strain 114",1.11 µM
same,IC50,DDX3 Helicase,0.3 µM
same,IC50,"[6]; read-out: IC50 [95% CI] (μM), HIV-1 strain 7404",0.22 µM
same,IC50,"[6]; read-out: IC50 [95% CI] (μM), HIV-1 strain 7406",0.33 µM
same,IC50,"[6]; read-out: IC50 [95% CI] (μM), HIV-1 strain 11808",0.23 µM
same,IC50,"[6]; read-out: IC50 [95% CI] (μM), HIV-1 strain 11845",0.37 µM
same,IC50,"[6]; read-out: IC50 [95% CI] (μM), HIV-1 strain 12227",0.94 µM
same,IC50,"[6]; read-out: IC50 [95% CI] (μM), HIV-1 strain 12235",0.36 µM
same,"Fold change, strain 7404","[6]; resistant strain IC50 to wild type strain IC50 ratio, 7404 NRTIs",0.2
same,"Fold change, strain 7406","[6]; resistant strain IC50 to wild type strain IC50 ratio, 7406 NRTIs",0.3
same,"Fold change, strain 11808","[6]; resistant strain IC50 to wild type strain IC50 ratio, 11808 PIs",0.2
same,"Fold change, strain 11845","[6]; resistant strain IC50 to wild type strain IC50 ratio, 11845 INIs",0.3
same,"Fold change, strain 12227","[6]; resistant strain IC50 to wild type strain IC50 ratio, 12227 NNRTIs",0.8
same,"Fold change, strain 12235","[6]; resistant strain IC50 to wild type strain IC50 ratio, 12235 NNRTIs",0.3
same,"activity against resistant HIV viruses, in words",[6]; viruses carrying resistance mutations,retained full activity
same,CC50 at 48 h,"[7]; DENV CC50, Huh7 cells, DENV experiment",> 787 µM
same,CC50 at 48 h,"[7]; WNV CC50, Huh7 cells, WNV experiment",> 500 µM
same,IC50,NS3 (DENV),> 200 µM
same,CC50,[8],49.8 µM
same,IC50,DDX1,> 200 µM
same,IC50,ATPase DDX3,> 200 µM
